This is an account of results in PMC7211193, “Evaluation of absorption, distribution, metabolism, and excretion of [^14C]-rucaparib, a poly(ADP-ribose) polymerase inhibitor, in patients with advanced solid tumors” (Investigational New Drugs, 2019).

The structures appear in SMILES notation. Several values for one entry are separate records, joined by “and”; a condition that tells them apart may be missing. Equal entries are not always repeated.

Common to all, as to format: in vivo, human
Data set [1] is described as follows: Metabolite profiling in pooled urine (LC-MS-Radiomatic). Here is the method: For each patient, urine samples from different collection intervals were pooled in proportion to their sample weight in order to obtain a pooled sample covering 90% of the TRA in urine. Pooled urine samples were lyophilized and then extracted at least twice with acetonitrile. The obtained supernatant was evaporated to dryness, and the dried residues were reconstituted in 20% acetonitrile in water containing 0.1% TFA. An aliquot of the supernatant was analyzed for TRA to determine extraction efficiency, and the mean recovery was ≈70%. Aliquots of the supernatants were injected into the HPLC coupled to UV and radioactive detectors to obtain metabolite profiles. The samples were also analyzed using LC-MS for metabolite identification.
(§1) Metabolite profiling and identification were performed on an LC system (Agilent) coupled to an LTQ Orbitrap mass spectrometer (Thermo Electron, Waltham, MA, USA) in combination with offline TopCount (LC-MS-TopCount) or online Radiomatic 625TR (LC-MS-Radiomatic; PerkinElmer). Proposed structures of the metabolites were based on accurate mass (<5 ppm) and comparison of mass spectral data of parent compound rucaparib and metabolite standard M324. The Radiomatic 625TR flow detector, equipped with a 200 μL flow cell, was operated using scintillation cocktail (Ultima-Flo M) delivered at a flow rate of 1 mL/min. Chromatography was done using a Phenomenex (Torrance, CA, USA) Luna Phenyl-Hexyl column (250 × 2 mm, 5 μm, 100 Å) at ambient temperature during the sample analysis. The mobile phase was (A) 0.05% TFA in water and (B) 0.05% TFA in acetonitrile, with a 0.2 mL/min flow rate. The gradient was as follows: 5% B over 2.1 min, to 20% B in 1.0 min, to 35% B in 16.9 min, isocratic at 35% B for 5 min, to 95% B over 5 min, and reduced to 5% B over 1 min, with total run time 45 min.
(§2) The abundance of unchanged rucaparib and metabolites identified in plasma, urine, and feces was determined as a percentage of the TRA in the analyzed samples. Percentage of the administered dose of rucaparib and metabolites was calculated in urine and feces (formula A). The concentration of rucaparib and its metabolites in plasma (ng Eq h/mL) was calculated based on the specific activity, TRA, and percentage of peaks (formula B). The AUC0-24h value of rucaparib and its major metabolite M324 in plasma was calculated using both Hamilton method (formula C) and linear trapezoidal method (formula D). • (A) %Doseofmetabolite=TRAinurineorfeces(dpm)÷TRAinadministereddose(dpm)×%metabolitesinmatrix • (B) Metaboliteconcentrationsinplasma(ngEq/mL)=TRAinplasma(dpm/mL)specificactivity(ngEq/dpm)×%metabolitesinthematrix • (C) Hamiltonmethod:AUC0−24h(ngEqh/mL)=concentrationinHamilton(AUC0−24h)pooledplasma(ngEq/mL)×24(h) • (D) Lineartrapezoidalmethod:AUC0−24h(ngEqh/mL)=C1h/2×1h+C1h+C4h/2×(4h−1h)+C4h+C8h/2×(8h−4h)+C8h+C24h/2×(24h−8h)

Data set [2] in a line: Metabolite profiling in pooled feces (LC-MS-Radiomatic). As to conditions: for Amount detected in feces: pooled fecal homogenates, mainly observed by MS only. Here is the method: For each patient, homogenized feces samples from different collection intervals were pooled in proportion to their sample weight in order to obtain a pooled sample covering 90% of the TRA recovered in feces. Aliquots of the pooled fecal samples were extracted at least twice with acetonitrile. The obtained supernatant was evaporated. The dried residues were reconstituted in 40% DMSO in water to obtain maximum recovery. An aliquot of the supernatant was analyzed for TRA to determine extraction efficiency, and the mean recovery was ≈75%. Aliquots of the supernatants were injected into the HPLC coupled to UV and radioactive detectors to obtain metabolite profiles. The sample supernatants were also analyzed using LC-MS to identify metabolites.
as §1, §2

The nature of data set [3]: Metabolite identification by LC-MS/MS in plasma, urine and feces. As to conditions: F feces, P plasma, U urine. As to the method: as §1
The LTQ Orbitrap mass spectrometer was equipped with an electrospray ionization interface and operated in positive ionization mode for metabolite profiling and identification. Mass spectra were acquired in full scan (MS) (m/z 150–1500) and data-dependent scan modes. Mass spectrometer parameter settings were: spray voltage, +5.0 kV; capillary temperature, 350 °C; sheath gas, 80 (arbitrary unit); auxiliary gas, 30 (arbitrary unit); activation Q, 0.25; activation time, 30 msec; resolution, 7500; and collision energy, 35 eV.
The structures of the metabolites were identified by LC-MS/MS based on comparisons of mass spectral fragmentation patterns with those produced by the parent compound. Further confirmation of the identities of the metabolites was based on the elemental composition determined from accurate mass analyses using an Orbitrap high-resolution mass spectrometer.
The structures of the major metabolites found in plasma, urine, and feces were also confirmed by comparisons with the synthetic reference standard M324.

A short description of data set [4]: Metabolite profiling in plasma (LC-MS-TopCount). Conditions: for Amount detected in plasma: Hamilton AUC0-24h pooled plasma. Here is the method: Plasma samples from six patients were pooled using two methods: (1) A Hamilton pool plasma (0–24 h) for metabolite profile determination was prepared by combining plasma aliquots of a volume proportional to the time interval used for calculating the AUC (AUC0-24h pool) for each patient and (2) four time-point pooling samples were obtained by equal volume pool at 1, 4, 8, and 24 h across six patients. In addition, plasma samples at 1, 8, and 24 h were selected from three patients (Patients 03, 08, and 09) for metabolite profiles analysis to check the individual differences between patients. Samples collected after 24 h post dose were not included in the pooling due to the low radioactivity at later time points. All plasma samples (pooled and from individuals) were extracted at least two times with acetonitrile. All supernatants were evaporated to dryness, and the dried residues were reconstituted in 20% acetonitrile in water containing 0.1% TFA. The sample recovery was obtained by comparing the radioactivity concentrations before and after extraction, and the mean recovery was about 70%.
Aliquots of the supernatants were injected into the HPLC, and the HPLC elutes were collected as fractions at intervals of 30 sec per well into LumaPlate-96 DeepWell microplates (PerkinElmer). Due to the low radioactivity in each plasma sample, metabolite profiles were obtained by TopCount (PerkinElmer) analysis of HPLC elutes. The fractions were dried at room temperature, and then analyzed by a TopCount NXT radiometric microplate reader (PerkinElmer) to obtain metabolite profiles. The supernatants of extracts were also analyzed using an LC-MS method to identify metabolites.
as §1, §2

Where [5] appears, read: 0-24 h pooled plasma, N = 6, mean ± SD.

In the case of `O=CNCc1ccc(-c2[nH]c3cc(F)cc4c3c2CCNC4=O)cc1` [M337b], the “Amount observed in urine” value in data set [1] (pooled urine) is listed as “small to trace amounts”. For the same compound, in data set [2], the “Amount detected in feces” value is listed as “trace amounts”. In addition, the “Matrix in which identified” value in data set [3] was “P, U, F”. Further, in data set [4], the “Amount detected in plasma” value is on record as “small or trace amounts”.
For the compound `NC(=O)c1ccc(-c2[nH]c3cc(F)cc4c3c2CCNC4=O)cc1` [M323], the “Amount observed in urine” value in data set [1] (pooled urine) is reported as “small to trace amounts”. In data set [2], the “Amount detected in feces” value is “trace amounts”. Moreover, the “Matrix in which identified” value in data set [3] is listed as “P, U, F”. In addition, in data set [4], the “Amount detected in plasma” value is “small or trace amounts”.
With `O=C(O)c1ccc(-c2[nH]c3cc(F)cc4c3c2CCNC4=O)cc1` [M324], in data set [1] (Patient 01), the “% of dose in pooled urine, Patient 01” value came to 6.17 % dose. In addition, the “% of dose in pooled urine, Patient 03” value in data set [1] (Patient 03) was found to be 7.24 % dose. The “% of dose in pooled urine, Patient 05” value in data set [1] (Patient 05) is recorded as 7.22 % dose. Moreover, the “% of dose in pooled urine, Patient 06” value in data set [1] (Patient 06) is recorded as 8.54 % dose. The “% of dose in pooled urine, Patient 08” value in data set [1] (Patient 08) was 6 % dose. The “% of dose in pooled urine, Patient 09” value in data set [1] (Patient 09) came to 10.3 % dose. Further, the “% Peak (of TRA) in urine” value in data set [1] (pooled urine covering 90% of urine radioactivity, N = 6, mean ± SD) amounted to 50.0 ± 15.5%. Moreover, in data set [1] (pooled urine, % of administered dose, N = 6, mean ± SD), the “% Dose in urine” value is recorded as 7.58 ± 1.61%. Further, in data set [2] (Patient 01), the “% of dose in pooled fecal homogenate, Patient 01” value is reported as 6.39 % dose. The “% of dose in pooled fecal homogenate, Patient 03” value in data set [2] (Patient 03) was determined as 7.82 % dose. For the same compound, the “% of dose in pooled fecal homogenate, Patient 05” value in data set [2] (Patient 05) is recorded as 3.33 % dose. Besides, in data set [2] (Patient 06), the “% of dose in pooled fecal homogenate, Patient 06” value amounted to 2.22 % dose. Besides, the “% of dose in pooled fecal homogenate, Patient 08” value in data set [2] (Patient 08) came out at 0.00 % dose. In data set [2] (Patient 09), the “% of dose in pooled fecal homogenate, Patient 09” value amounted to 0.00 % dose. In addition, the “% Peak (of TRA) in feces” value in data set [2] (pooled fecal homogenate covering >90% of fecal excretion, N = 6, mean ± SD) was 5.07 ± 4.95%. The “% Dose in feces” value in data set [2] (pooled fecal homogenate, % of administered dose, N = 6, mean ± SD) was 3.3% and 3.29 ± 3.25%. For the same compound, the “Matrix in which identified” value in data set [3] was “P, U, F”. In data set [4] (setting [5]), the “% Peak (of plasma radioactivity), Hamilton (AUC0-24h) pooled plasma” value came to 18.6 ± 10.8% and the “Concentration, Hamilton (AUC0-24h) pooled plasma” value is 94.0 ± 62.7 ng Eq/mL. Moreover, in data set [4] (Hamilton 0-24 h pooled plasma), the “M324 as percentage of unchanged rucaparib exposure in 24-h pooled plasma” value was found to be 30.3%. In data set [4] (Patient 03, 1 h), the “% Radioactive peaks in individual plasma, Patient 03, 1 h” value was found to be 15.4%. Besides, the “% Radioactive peaks in individual plasma, Patient 03, 8 h” value in data set [4] (Patient 03, 8 h) was found to be 33.3%. In addition, the “% Radioactive peaks in individual plasma, Patient 03, 24 h” value in data set [4] (Patient 03, 24 h) is recorded as 63.9%. For the same compound, in data set [4] (Patient 08, 1 h), the “% Radioactive peaks in individual plasma, Patient 08, 1 h” value came to 7.94%. The “% Radioactive peaks in individual plasma, Patient 08, 8 h” value in data set [4] (Patient 08, 8 h) is on record as 20%. In data set [4] (Patient 08, 24 h), the “% Radioactive peaks in individual plasma, Patient 08, 24 h” value is on record as 61.5%. For the same compound, the “% Radioactive peaks in individual plasma, Patient 09, 1 h” value in data set [4] (Patient 09, 1 h) came out at 15.4%. Also, the “% Radioactive peaks in individual plasma, Patient 09, 8 h” value in data set [4] (Patient 09, 8 h) came out at 17.9%. For the same compound, in data set [4] (Patient 09, 24 h), the “% Radioactive peaks in individual plasma, Patient 09, 24 h” value came to 36.2%. Further, the “% Radioactive peaks in individual plasma, Mean ± SD, 1 h” value in data set [4] (Patients 03, 08, 09, 1 h) amounted to 12.9 ± 4.31%. Also, the “% Radioactive peaks in individual plasma, Mean ± SD, 8 h” value in data set [4] (Patients 03, 08, 09, 8 h) came to 23.7 ± 8.35%. Moreover, the “% Radioactive peaks in individual plasma, Mean ± SD, 24 h” value in data set [4] (Patients 03, 08, 09, 24 h) was determined as 53.9 ± 15.3%. Further, the “AUC0-24h, Hamilton (AUC0-24h) pooled plasma” value in data set [4] (concentration in 0-24-h pooled sample × 24 h) worked out at 2260 ng Eq h/mL. For the same compound, in data set [4] (human, plasma, oral, 600 mg, single pooled sample from all six patients, 1 h, read-out: Mean concentration, time point pooled plasma, 1 h), the concentration at 1 h was determined as 31.1 ng/mL. The concentration at 4 h in data set [4] (human, plasma, oral, 600 mg, single pooled sample from all six patients, 4 h, read-out: Mean concentration, time point pooled plasma, 4 h) was found to be 265 ng/mL. For the same compound, in data set [4] (human, plasma, oral, 600 mg, single pooled sample from all six patients, 8 h, read-out: Mean concentration, time point pooled plasma, 8 h), the concentration at 8 h was determined as 105 ng/mL. Moreover, the concentration at 24 h in data set [4] (human, plasma, oral, 600 mg, single pooled sample from all six patients, 24 h, read-out: Mean concentration, time point pooled plasma, 24 h) was 239 ng/mL. In data set [4] (trapezoidal method from 1, 4, 8, 24 h pools), the “Mean AUC0-24h, time point pooled plasma” value was found to be 3960 ng Eq h/mL.
For `NCc1ccc(-c2[nH]c3cc(F)cc4c3c2CCNC4=O)cc1` [M309], the “Amount observed in urine” value in data set [1] (pooled urine) is “small to trace amounts”. Also, the “Amount detected in feces” value in data set [2] is “trace amounts”. The “Matrix in which identified” value in data set [3] is “P, U, F”. The “Amount detected in plasma” value in data set [4] is listed as “small or trace amounts”.
